Converted amounts (≈) assume the structure as drawn. “And” between values parts separate entries of the source, which are not always exact repeats. Equal entries are not always repeated.
What was measured:
[1] = test system: Plasmodium falciparum; experiment: In vitro antimalarial activity against Plasmodium falciparum W-2 (Indochina); format: functional, organism-based
[2] = test system: Plasmodium falciparum; experiment: In vitro antimalarial activity against Plasmodium falciparum D6 Sierra Leone; format: functional, organism-based
[3] = test system: Mus musculus; experiment: Antimalarial activity against Plasmodium berghei in mice (Mus musculus) expressed as number of cures was determined at a dose of 160 mg/kg; format: functional
[4] = test system: Mus musculus; experiment: Antimalarial activity against Plasmodium berghei in mice (Mus musculus) expressed as number of cures was determined at a dose of 640 mg/kg; format: functional
[5] = test system: Mus musculus; experiment: Antimalarial activity against Plasmodium berghei in mice (Mus musculus) expressed as number of cures was determined at a dose of 40 mg/kg; format: functional

| SMILES | IC50 [1] | IC50 [2] | No. of cures [3] | No. of cures [4] | No. of cures [5] | No. of cures ([5]; 40 mg/kg) |
| --- | --- | --- | --- | --- | --- | --- |
| C[C@H]1[C@@H](OCCCC(=O)O)O[C@@H]2O[C@]3(C)CC[C@H]4[C@H](C)CC[C@@H]1[C@@]24OO3 | 8.04 ng/mL (≈ 21.7 nM) | 17.9 ng/mL (≈ 48.3 nM) |  |  |  |  |
| C[C@H]1[C@@H](OCc2ccc(C(=O)O)cc2)O[C@@H]2OC3(C)CC[C@H]4[C@H](C)CC[C@@H]1[C@@]24OO3 (single isomer, unassigned) | 0.92 ng/mL (≈ 2.2 nM) | 1.74 ng/mL (≈ 4.16 nM) |  |  |  |  |
| COC(=O)CCCO[C@H]1O[C@@H]2OC3(C)CC[C@H]4[C@H](C)CC[C@@H]([C@H]1C)[C@@]24OO3 (single isomer, unassigned) | 0.95 ng/mL (≈ 2.47 nM) | 3.06 ng/mL (≈ 7.96 nM) |  |  |  |  |
| COC(=O)c1ccc(CO[C@H]2O[C@@H]3OC4(C)CC[C@H]5[C@H](C)CC[C@@H]([C@H]2C)[C@@]35OO4)cc1 (single isomer, unassigned) | 0.37 ng/mL (≈ 0.855 nM) | 0.77 ng/mL (≈ 1.78 nM) |  |  |  |  |
| COC(=O)CCO[C@H]1O[C@@H]2OC3(C)CC[C@H]4[C@H](C)CC[C@@H]([C@H]1C)[C@@]24OO3 (single isomer, unassigned) | 0.64 ng/mL (≈ 1.73 nM) | 1.84 ng/mL (≈ 4.97 nM) |  |  |  |  |
| C[C@H]1[C@@H](OCC(=O)O)O[C@@H]2OC3(C)CC[C@H]4[C@H](C)CC[C@@H]1[C@@]24OO3 (single isomer, unassigned) | 26.2 ng/mL (≈ 76.6 nM) | 53.8 ng/mL (≈ 157 nM) |  |  |  |  |
| C[C@H]1[C@@H](OCCCC(=O)O)O[C@@H]2OC3(C)CC[C@H]4[C@H](C)CC[C@@H]1[C@@]24OO3 (single isomer, unassigned) | 10.5 ng/mL (≈ 28.4 nM) | 75.5 ng/mL (≈ 204 nM) |  |  |  |  |
| CCOC(=O)CO[C@H]1O[C@@H]2OC3(C)CC[C@H]4[C@H](C)CC[C@@H]([C@H]1C)[C@@]24OO3 (single isomer, unassigned) | 0.26 ng/mL (≈ 0.702 nM) | 0.6 ng/mL (≈ 1.62 nM) |  |  |  |  |
| C[C@H]1[C@@H](OCCC(=O)O)O[C@@H]2OC3(C)CC[C@H]4[C@H](C)CC[C@@H]1[C@@]24OO3 (single isomer, unassigned; 7b) | 23.3 ng/mL (≈ 65.3 nM) | 85 ng/mL (≈ 239 nM) |  |  |  |  |
| C[C@H]1[C@@H](OCCC(=O)O)O[C@@H]2OC3(C)CC[C@H]4[C@H](C)CC[C@@H]1[C@@]24OO3 (single isomer, unassigned; 8b) | 35.6 ng/mL (≈ 100 nM) | 51.7 ng/mL (≈ 145 nM) |  |  |  |  |
| C[C@@H]1[C@H](OCc2ccc(C(=O)O)cc2)O[C@@H]2O[C@@]3(C)CC[C@@H]4[C@@H](C)CC[C@@H]1[C@]24OO3 [ARTELINIC ACID] | 1.38 ng/mL (≈ 3.3 nM) | 4.07 ng/mL (≈ 9.73 nM) | 5 | 5 | 5 |  |
| C[C@@H]1CC[C@H]2[C@@H](C)C(=O)O[C@@H]3O[C@@]4(C)CC[C@@H]1[C@]32OO4 [ARTEMISININ] | 0.66 ng/mL (≈ 2.34 nM) | 2.93 ng/mL (≈ 10.4 nM) | 5 | 5 |  | 3 and 2 |
| C[C@H]1[C@H](OC(=O)CCC(=O)[O-])O[C@@H]2O[C@@]3(C)CC[C@H]4[C@H](C)CC[C@@H]1[C@@]24OO3.[Na+] [SODIUM ARESUNATE] |  |  |  | 5 |  |  |
